Biological target: human BACE1 (Homo sapiens (Human), UniProt P56817)
Experiment: BACE1 binding assay (SPA-based, radioligand displacement)
Settings: pH 4.5, Ki calculated from IC50
Experimental: The binding assay was performed as SPA-based assay using a biotinylated form of human BACE1 recombinantly expressed and subsequently purified from Freestyle HEK293 cells. The binding assay was run in a 50 mM sodium acetate buffer, pH 4.5 containing 50 mM NaCl and 0.03% Tween-20 in white clear bottom 384 plates (Corning #3653). 10 nM (final concentration) radioligand ([^3H]—N-((1S,2R)-1-benzyl-3-cyclopropylamino-2-hydroxy-propyl)-5-(methanesulfonyl-methyl-amino)-N—((R)-1-phenyl-ethyl)-isophthalamide) (TRQ11569 purchased from GE Healthcare) was mixed with test compound at a given concentration, 6 nM (final concentration) human BACE1 and 25 μg Streptavidin coated PVT core SPA beads (RPNQ0007, GE Healthcare Life Sciences) in a total volume of 40 μl. Several concentrations of each test compound were tested in the assay for IC50 determination. The plates were incubated for one hour at room temperature and counted in a Wallac Trilux counter. Total and non-specific binding were determined using buffer and 1 μM (final concentration) of the high affinity BACE1 reference inhibitor (S)-6-[3-chloro-5-(5-prop-1-ynyl-pyridin-3-yl)-thiophen-2-yl]-2-imino-3,6-dimethyl-tetrahydro-pyrimidin-4-one, respectively. For each test compound, a IC50 value (the concentration mediating 50% inhibition of the specific binding of the radioligand) was determined from concentration-response curve and used to calculate the Ki from the equation Ki=IC50/(1+L/Kd), where L and Kd are the final concentration of the radioligand used in the assay and the dissociation constant of the radioligand, respectively. The Kd of the radioligand was determined from saturation binding experiments.

Chain of human BACE1 (P56817 46-501): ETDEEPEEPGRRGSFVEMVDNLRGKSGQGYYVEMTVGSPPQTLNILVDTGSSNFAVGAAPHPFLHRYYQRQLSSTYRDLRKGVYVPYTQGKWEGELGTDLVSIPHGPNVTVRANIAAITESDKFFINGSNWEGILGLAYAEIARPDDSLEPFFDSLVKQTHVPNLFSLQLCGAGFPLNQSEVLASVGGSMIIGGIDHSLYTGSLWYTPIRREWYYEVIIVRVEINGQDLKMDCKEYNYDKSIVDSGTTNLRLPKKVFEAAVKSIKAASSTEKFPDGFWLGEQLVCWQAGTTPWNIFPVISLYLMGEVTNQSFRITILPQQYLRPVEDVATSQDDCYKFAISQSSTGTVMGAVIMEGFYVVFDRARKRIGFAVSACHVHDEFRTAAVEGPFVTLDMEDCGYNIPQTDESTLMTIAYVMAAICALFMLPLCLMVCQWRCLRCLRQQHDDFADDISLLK

Row | Ki [nM] | Structure (SMILES)
1 | 210 | C[C@@]1(F)CC(F)(F)[C@@](C)(c2cc(NC(=O)c3ccc(F)cn3)ccc2F)N=C1N [Compound 2, N-(3-((2R,5R)-6-amino-3,3,5-trifluoro-2,5-dimethyl-2,3,4,5-tetrahydropyridin-2-yl)-4-fluorophenyl)-5-fluoropicolinamide]
2 | 12 | C[C@]1(F)CC(F)(F)[C@@](C)(c2cc(NC(=O)c3ccc(Cl)cn3)ccc2F)N=C1N [Compound 3, N-(3-((2R,5S)-6-amino-3,3,5-trifluoro-2,5-dimethyl-2,3,4,5-tetrahydropyridin-2-yl)-4-fluorophenyl)-5-chloropicolinamide]
3 | 11 | C[C@]1(F)CC(F)(F)[C@@](C)(c2cc(NC(=O)c3ccc(C#N)cn3)ccc2F)N=C1N [Compound 4, N-(3-((2R,5S)-6-amino-3,3,5-trifluoro-2,5-dimethyl-2,3,4,5-tetrahydropyridin-2-yl)-4-fluorophenyl)-5-cyanopicolinamide]
4 | 19 | C[C@]1(F)CC(F)(F)[C@@](C)(c2cc(NC(=O)c3ccn(C(F)F)n3)ccc2F)N=C1N [Compound 6, N-(3-((2R,5S)-6-amino-3,3,5-trifluoro-2,5-dimethyl-2,3,4,5-tetrahydropyridin-2-yl)-4-fluorophenyl)-1-(difluoromethyl)-1H-pyrazole-3-carboxamide]
5 | 33 | Cc1nc(C(=O)Nc2ccc(F)c([C@@]3(C)N=C(N)[C@@](C)(F)CC3(F)F)c2)co1 [Compound 7, N-(3-((2R,5S)-6-amino-3,3,5-trifluoro-2,5-dimethyl-2,3,4,5-tetrahydropyridin-2-yl)-4-fluorophenyl)-2-methyloxazole-4-carboxamide]
6 | 66 | C[C@]1(F)CC(F)(F)[C@@](C)(c2cc(NC(=O)c3nccs3)ccc2F)N=C1N [Compound 8, N-(3-((2R,5S)-6-amino-3,3,5-trifluoro-2,5-dimethyl-2,3,4,5-tetrahydropyridin-2-yl)-4-fluorophenyl) thiazole-2-carboxamide]
7 | 100 | Cn1cc(Br)nc1C(=O)Nc1ccc(F)c([C@@]2(C)N=C(N)[C@@](C)(F)CC2(F)F)c1 [Compound 9, N-(3-((2R,5S)-6-amino-3,3,5-trifluoro-2,5-dimethyl-2,3,4,5-tetrahydropyridin-2-yl)-4-fluorophenyl)-4-bromo-1-methyl-1H-imidazole-2-carboxamide]
8 | 44 | Cc1csc(C(=O)Nc2ccc(F)c([C@@]3(C)N=C(N)[C@@](C)(F)CC3(F)F)c2)n1 [Compound 10, N-(3-((2R,5S)-6-amino-3,3,5-trifluoro-2,5-dimethyl-2,3,4,5-tetrahydropyridin-2-yl)-4-fluorophenyl)-4-methylthiazole-2-carboxamide]
9 | 63 | C[C@]1(F)CC(F)(F)[C@@](C)(c2cc(NC(=O)c3ccc(C(F)(F)F)cn3)ccc2F)N=C1N [Compound 11, N-(3-((2R,5S)-6-amino-3,3,5-trifluoro-2,5-dimethyl-2,3,4,5-tetrahydropyridin-2-yl)-4-fluorophenyl)-5-(trifluoromethyl)picolinamide]
10 | 29 | COc1cnc(C(=O)Nc2ccc(F)c([C@@]3(C)N=C(N)[C@@](C)(F)CC3(F)F)c2)nc1 [Compound 12, N-(3-((2R,5S)-6-amino-3,3,5-trifluoro-2,5-dimethyl-2,3,4,5-tetrahydropyridin-2-yl)-4-fluorophenyl)-5-methoxypyrimidine-2-carboxamide]
11 | 37 | C[C@]1(F)CC(F)(F)[C@@](C)(c2cc(NC(=O)c3nc(CF)co3)ccc2F)N=C1N [Compound 14, N-(3-((2R,5S)-6-amino-3,3,5-trifluoro-2,5-dimethyl-2,3,4,5-tetrahydropyridin-2-yl)-4-fluorophenyl)-4-(fluoromethyl)oxazole-2-carboxamide]
12 | 46 | C[C@]1(F)CC(F)(F)[C@@](C)(c2cc(NC(=O)c3nc(CF)cs3)ccc2F)N=C1N [Compound 15, N-(3-((2R,5S)-6-amino-3,3,5-trifluoro-2,5-dimethyl-2,3,4,5-tetrahydropyridin-2-yl)-4-fluorophenyl)-4-(fluoromethyl)thiazole-2-carboxamide]
13 | 58 | C[C@]1(F)CC(F)(F)[C@@](C)(c2cc(NC(=O)c3cnc(C(F)F)cn3)ccc2F)N=C1N [Compound 16, N-(3-((2R,5S)-6-amino-3,3,5-trifluoro-2,5-dimethyl-2,3,4,5-tetrahydropyridin-2-yl)-4-fluorophenyl)-5-(difluoromethyl)pyrazine-2-carboxamide]
14 | 32 | COc1cnc(C(=O)Nc2ccc(F)c([C@@]3(C)N=C(N)[C@@](C)(F)CC3(F)F)c2)c(C)n1 [Compound 19, N-(3-((2R,5S)-6-amino-3,3,5-trifluoro-2,5-dimethyl-2,3,4,5-tetrahydropyridin-2-yl)-4-fluorophenyl)-5-methoxy-3-methylpyrazine-2-carboxamide]
15 | 1600 | Cc1nnc(C(=O)Nc2ccc(F)c([C@@]3(C)N=C(N)[C@@](C)(F)CC3(F)F)c2)o1 [Compound 20, N-(3-((2R,5S)-6-amino-3,3,5-trifluoro-2,5-dimethyl-2,3,4,5-tetrahydropyridin-2-yl)-4-fluorophenyl)-5-methyl-1,3,4-oxadiazole-2-carboxamide]
16 | 58 | Cc1noc(C(=O)Nc2ccc(F)c([C@@]3(C)N=C(N)[C@@](C)(F)CC3(F)F)c2)n1 [Compound 21, N-(3-((2R,5S)-6-amino-3,3,5-trifluoro-2,5-dimethyl-2,3,4,5-tetrahydropyridin-2-yl)-4-fluorophenyl)-3-methyl-1,2,4-oxadiazole-5-carboxamide]
17 | 110 | Cn1cnc(C(=O)Nc2ccc(F)c([C@@]3(C)N=C(N)[C@@](C)(F)CC3(F)F)c2)n1 [Compound 22, N-(3-((2R,5S)-6-amino-3,3,5-trifluoro-2,5-dimethyl-2,3,4,5-tetrahydropyridin-2-yl)-4-fluorophenyl)-1-methyl-1H-1,2,4-triazole-3-carboxamide]
18 | 71 | C[C@@]1(F)CC(F)(F)[C@@](C)(c2cc(NC(=O)c3ccn(C(F)F)n3)ccc2F)N=C1N [Compound 23, N-(3-((2R,5R)-6-amino-3,3,5-trifluoro-2,5-dimethyl-2,3,4,5-tetrahydropyridin-2-yl)-4-fluorophenyl)-1-(difluoromethyl)-1H-pyrazole-3-carboxamide]
19 | 130 | COc1cnc(C(=O)Nc2ccc(F)c([C@@]3(C)N=C(N)[C@](C)(F)CC3(F)F)c2)cn1 [Compound 25, N-(3-((2R,5R)-6-amino-3,3,5-trifluoro-2,5-dimethyl-2,3,4,5-tetrahydropyridin-2-yl)-4-fluorophenyl)-5-methoxypyrazine-2-carboxamide]
20 | 130 | COc1cnc(C(=O)Nc2ccc(F)c([C@@]3(C)N=C(N)[C@](C)(F)CC3(F)F)c2)nc1 [Compound 26, N-(3-((2R,5R)-6-amino-3,3,5-trifluoro-2,5-dimethyl-2,3,4,5-tetrahydropyridin-2-yl)-4-fluorophenyl)-5-methoxypyrimidine-2-carboxamide]
21 | 140 | Cc1csc(C(=O)Nc2ccc(F)c([C@@]3(C)N=C(N)[C@](C)(F)CC3(F)F)c2)n1 [Compound 27, N-(3-((2R,5R)-6-amino-3,3,5-trifluoro-2,5-dimethyl-2,3,4,5-tetrahydropyridin-2-yl)-4-fluorophenyl)-4-methylthiazole-2-carboxamide]
22 | 170 | C[C@@]1(F)CC(F)(F)[C@@](C)(c2cc(NC(=O)c3ccc(C(F)(F)F)cn3)ccc2F)N=C1N [Compound 28, N-(3-((2R,5R)-6-amino-3,3,5-trifluoro-2,5-dimethyl-2,3,4,5-tetrahydropyridin-2-yl)-4-fluorophenyl)-5-(trifluoromethyl)picolinamide]
23 | 260 | C[C@@]1(F)CC(F)(F)[C@@](C)(c2cc(NC(=O)c3nc(CF)co3)ccc2F)N=C1N [Compound 30, N-(3-((2R,5R)-6-amino-3,3,5-trifluoro-2,5-dimethyl-2,3,4,5-tetrahydropyridin-2-yl)-4-fluorophenyl)-4-(fluoromethyl)oxazole-2-carboxamide]
24 | 92 | C[C@@]1(F)CC(F)(F)[C@@](C)(c2cc(NC(=O)c3nc(CF)cs3)ccc2F)N=C1N [Compound 31, N-(3-((2R,5R)-6-amino-3,3,5-trifluoro-2,5-dimethyl-2,3,4,5-tetrahydropyridin-2-yl)-4-fluorophenyl)-4-(fluoromethyl)thiazole-2-carboxamide]
25 | 51 | C[C@@]1(F)CC(F)(F)[C@@](C)(c2cc(NC(=O)c3ccc(C#N)cn3)ccc2F)N=C1N [Compound 32, N-(3-((2R,5R)-6-amino-3,3,5-trifluoro-2,5-dimethyl-2,3,4,5-tetrahydropyridin-2-yl)-4-fluorophenyl)-5-cyanopicolinamide]
26 | 62 | C[C@@]1(F)CC(F)(F)[C@@](C)(c2cc(NC(=O)c3ccc(Cl)cn3)ccc2F)N=C1N [Compound 33, N-(3-((2R,5R)-6-amino-3,3,5-trifluoro-2,5-dimethyl-2,3,4,5-tetrahydropyridin-2-yl)-4-fluorophenyl)-5-chloropicolinamide]
27 | 210 | Cc1nc(C(=O)Nc2ccc(F)c([C@@]3(C)N=C(N)[C@](C)(F)CC3(F)F)c2)co1 [Compound 34, N-(3-((2R,5R)-6-amino-3,3,5-trifluoro-2,5-dimethyl-2,3,4,5-tetrahydropyridin-2-yl)-4-fluorophenyl)-2-methyloxazole-4-carboxamide]

Source: US9353084B2, “2-amino 3,5,5-trifluoro-3,4,5,6-tetrahydropyridines as BACE1 inhibitors for treatment of Alzheimer's disease” (H. Lundbeck A/S, priority 2014, dated 2016)
